Measured values from patent publication US8212112B2, “Gene participating in low temperature germinability in rice and utilization of the same” (Hokuren Federation of Agricultural Cooperatives, priority 2007, dated 2012).

How the values were obtained:
[1] = tested on: rice seeds (Hayamasari, NILHYqLTG-3-1, Italica Livorno); assay: germination tests under stress conditions (ABA, GA, NaCl, mannitol, temperature); design: species or system rice (O. sativa); conditions: for germination response at low NaCl / mannitol concentrations: concentrations lower than 250 mM mannitol and 150 mM NaCl
Description: To study the germinability under difference stress conditions, germination tests were carried out according to the method reported by Fujino et al. (2004). For low-temperature stress, seeds were placed on Petri dishes which were then loaded into an incubator. Solutions of plant hormones (ABA and GA), NaCl and mannitol at different concentrations were added to the Petri dishes which were then placed in an incubator. […] (A) is the germination at the optimal temperature of 25° C., (B) is the germination at 13° C., (C) is the sensitivity to NaCl (300 mM), (D) is the sensitivity to mannitol (500 mM), and (E) is the sensitivity to ABA ([…]). Examples of […]-3-1 (closed triangles), and Italica Livorno (open circles) are shown. The numerical values represent the mean±standard deviation (SD) for triplicates. […] In (A), the seeds were incubated in water at 25° C., 15° C., 13° C. and 10° C. In (B), GA (100, 200, 500 μM) was added at 15° C.; in (C), ABA ([…]) was added at 25° C.; in (D), NaCl (150, 250, 300 mM) was added; and in (E), mannitol (250, 500, 600 mM) was added, following which incubation was carried out. The open circles indicate controls. The low concentrations to high concentrations are indicated by, in order, open circles, triangles and squares. […] The open and closed symbols represent, respectively, the presence and absence of […]-3-1 and Italica Livorno are represented by, respectively, circles, triangles, and squares. […] Germination tests were carried out by the method reported by Fujino et al. (2004). For the low temperature stress, seeds on a Petri dish were placed in an incubator. Solutions of plant hormone (ABA and GA) and mannitol at different concentrations were added to the Petri dishes at this time before placing the dishes in the incubator.

qLTG-3-1 gene = qLTG-3-1 gene expression by Northern blot and RT-PCR analysis; design: species or system rice (O. sativa); conditions: ABA, NaCl (250 mM), mannitol (500 mM)
Description: To carry out an analysis of gene expression, the total RNA was extracted from various organs of rice using RNAiso (TAKARA). The total RNA (0.5 μg) was reverse-transcripted with Rever Tra Ace (TOYOBO) having an Oligo(dT)20 primer, in accordance with the manufacturing guidelines. The PCR reaction was carried out using KOD-plus (TOYOBO). Each PCR reaction (10 μL) included 0.5 μL of cDNA template that had been diluted 5-fold. The specificity of each primer for the target gene was confirmed by PCR product sequencing. For the purpose of Northern blotting analysis, the total RNA (4 μg/sample) was isolated on 2.0% (w/v) agarose-modified formaldehyde gel containing 40 mM MOPS (pH 7.0), 10 mM Na-acetate, 1 mM EDTA and 2% (v/v) formaldehyde.
The RNA was transferred with 20×SSC to a positively charged nylon membrane (Roche Diagnostics). Hybridization and signal detection were carried out by, respectively, a DIG system and CDP-star (Roche Diagnostics). The PCR fragments from the primers 13-5U and 13-5L were used as the probes for Northern blot analysis. The primers and amplification conditions for RT-PCR analysis are shown subsequently in Table 5.
In this example, the expression of the qLTG-3-1 gene was studied. Using RNAiso (TAKARA), the total RNA was extracted from each organ of rice and treated with DNaseI (TAKARA). For Northern blot analysis, the total RNA (4 μg/sample) was separated on 2.0% (w/v) agarose-modified formaldehyde gel containing 40 mM of MOPS (pH 7.0), 10 mM of sodium acetate and 2% (v/v) formaldehyde.
The RNA was blotted with 20×SSC to a positively charged nylon membrane (Roche Diagnostics). Hybridization and signal detection were carried out with a DIG system and CDP-Star (Roche Diagnostics) according to the manufacturing guidelines. The PCR fragments obtained from the primers 13-5U and 13-5L were used as the probes for Northern blot analysis (Table 5).
In this example, the association between qLTG-3-1 expression and seed germination was examined. […]

Structure (SMILES)	germination response at low NaCl / mannitol concentrations [1]	qLTG-3-1 expression pattern in embryos under stress treatment (qLTG-3-1 gene)	effect of exogenous GA on seed germination ([1]; 15° C., Hayamasari, NILHYqLTG-3-1 and Italica Livorno)	germination response in ABA treatment ([1]; ABA added at 25° C.)
OC[C@@H](O)[C@@H](O)[C@H](O)[C@H](O)CO [mannitol]	all the varieties showed a delay in germination	delay and suppression of qLTG-3-1 expression		
[Cl-].[Na+] [NaCl]	all the varieties showed a delay in germination	delay and suppression of qLTG-3-1 expression		
C=C1C[C@]23C[C@@]1(O)CC[C@H]2[C@@]12C=C[C@H](O)[C@@](C)(C(=O)O1)[C@H]2[C@@H]3C(=O)O [GA]			did not promote seed germination in any of the genotypes	
CC1=CC(=O)CC(C)(C)C1(O)/C=C/C(C)=C\C(=O)O (stereo not shown) [ABA]		delay and suppression of qLTG-3-1 expression		a delay in germination was observed in both parents
